Laboratory results as given in PubChem BioAssay (NCI).
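In this assay, cells in 96-well plates receive the compound at five concentrations for 48 hours. Endpoints are linearly interpolated between the surrounding concentrations. GI50 = concentration required for 50% inhibition of growth. TGI is the concentration that stops growth completely.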

Assays:
Test in all cases: inhibition of tumour cell growth, NCI panel, 48 h
[1] = tested on: LOX IMVI melanoma
[2] = tested on: HS 578T breast
[3] = tested on: OVCAR-3 ovarian
[4] = tested on: SNB-19 CNS
[5] = tested on: RPMI-8226 leukemia
[6] = tested on: OVCAR-8 ovarian
[7] = tested on: U251 CNS
[8] = tested on: SF-539 CNS
[9] = tested on: SF-295 CNS
[10] = tested on: PC-3 prostate
[11] = tested on: CAKI-1 renal
[12] = tested on: HCC-2998 colon
[13] = tested on: NCI-H522 lung
[14] = tested on: SW-620 colon
[15] = tested on: SK-MEL-28 melanoma
[16] = tested on: HOP-92 NSCLC
[17] = tested on: K-562 leukemia
[18] = tested on: SN12C renal
[19] = tested on: NCI-H226 lung
[20] = tested on: UACC-62 melanoma
[21] = tested on: NCI-H460 lung
[22] = tested on: HL-60(TB) leukemia
[23] = tested on: UO-31 renal
[24] = tested on: M14 melanoma
[25] = tested on: A498 renal
[26] = tested on: MDA-MB-231 breast
[27] = tested on: RXF 393 renal
[28] = tested on: A549 NSCLC
[29] = tested on: UACC-257 melanoma
[30] = tested on: SK-OV-3 ovarian
[31] = tested on: HOP-62 NSCLC
[32] = tested on: BT-549 breast
[33] = tested on: SF-268 CNS
[34] = tested on: HCT-15 colon
[35] = tested on: MOLT-4 leukemia
[36] = tested on: COLO 205 colon
[37] = tested on: CCRF-CEM leukemia
[38] = tested on: MCF7 breast
[39] = tested on: SNB-75 CNS
[40] = tested on: MDA-MB-468 breast
[41] = tested on: IGROV1 ovarian
[42] = tested on: EKVX NSCLC
[43] = tested on: KM12 colon
[44] = tested on: SK-MEL-5 melanoma
[45] = tested on: NCI-H23 lung
[46] = tested on: NCI/ADR-RES ovarian
[47] = tested on: ACHN renal
[48] = tested on: MALME-3M melanoma
[49] = tested on: OVCAR-5 ovarian
[50] = tested on: T-47D breast
[51] = tested on: HCT-116 colon
[52] = tested on: DU-145 prostate
[53] = tested on: 786-0 renal
[54] = tested on: OVCAR-4 ovarian
[55] = tested on: SK-MEL-2 melanoma
[56] = tested on: HT29 colon
[57] = tested on: MDA-MB-435
[58] = tested on: TK-10 renal

## CN(C)c1nc(NCCNS(=O)(=O)c2ccc(C(=O)/C=C/c3ccc(F)cc3)cc2)nc(Nc2ccc(F)cc2)n1
[1]
  GI50: 1.66 µM
  TGI: 3.07 µM
[2]
  GI50: 6.3 µM
  TGI: 71.5 µM
[3]
  GI50: 1.74 µM
  TGI: 3.24 µM
[4]
  GI50: 4.58 µM
  TGI: 16.8 µM
[5]
  GI50: 2.42 µM
  TGI: 6.92 µM
[6]
  GI50: 3.42 µM
  TGI: 13.9 µM
[7]
  GI50: 1.99 µM
  TGI: 4.41 µM
[8]
  GI50: 2.52 µM
  TGI: 6.78 µM
[9]
  GI50: 3.4 µM
  TGI: 13 µM
[10]
  GI50: 2.76 µM
  TGI: 10.6 µM
[11]
  GI50: 3.01 µM
  TGI: 12.7 µM
[12]
  GI50: 1.8 µM
  TGI: 3.45 µM
[13]
  GI50: 2.81 µM
  TGI: 8.9 µM
[14]
  GI50: 1.9 µM
  TGI: 4.02 µM
[15]
  GI50: 3.6 µM
  TGI: 13.7 µM
[16]
  GI50: 2.49 µM
  TGI: 6.51 µM
[17]
  GI50: 2.42 µM
  TGI: 6.8 µM
[18]
  GI50: 1.7 µM
  TGI: 3.36 µM
[19]
  GI50: 3.41 µM
  TGI: 16.4 µM
[20]
  GI50: 3.57 µM
  TGI: 14.6 µM
[21]
  GI50: 2.45 µM
  TGI: 6.92 µM
[22]
  GI50: 2.04 µM
  TGI: 6.34 µM
[23]
  GI50: 2.9 µM
  TGI: 11.9 µM
[24]
  GI50: 2.6 µM
  TGI: 8.29 µM
[25]
  GI50: 6.21 µM
  TGI: 19.3 µM
[26]
  GI50: 2.64 µM
  TGI: 8.38 µM
[27]
  GI50: 2.26 µM
  TGI: 7.51 µM
[28]
  GI50: 3.41 µM
  TGI: 14.2 µM
[29]
  GI50: 3.61 µM
  TGI: 15.2 µM
[30]
  GI50: 8.23 µM
  TGI: 21.6 µM
[31]
  GI50: 8.39 µM
  TGI: 23.6 µM
[32]
  GI50: 4.87 µM
  TGI: 17.1 µM
[33]
  GI50: 3.89 µM
  TGI: 16.4 µM
[34]
  GI50: 1.99 µM
  TGI: 4.28 µM
[35]
  GI50: 2.5 µM
  TGI: 6.5 µM
[36]
  GI50: 2.38 µM
  TGI: 6.56 µM
[37]
  GI50: 3.42 µM
  TGI: > 100 µM
[38]
  GI50: 1.8 µM
  TGI: 3.46 µM
[39]
  GI50: 2.88 µM
  TGI: 16 µM
[40]
  GI50: 2.55 µM
  TGI: 8.09 µM
[41]
  GI50: 4.27 µM
  TGI: 15 µM
[42]
  GI50: 2.95 µM
  TGI: 10.9 µM
[43]
  GI50: 2 µM
  TGI: 4.41 µM
[44]
  GI50: 2.91 µM
  TGI: 11.1 µM
[45]
  GI50: 4.17 µM
  TGI: 15.6 µM
[46]
  GI50: 3.25 µM
  TGI: 11.6 µM
[47]
  GI50: 3.13 µM
  TGI: 10.9 µM
[48]
  GI50: 3.42 µM
  TGI: 12.4 µM
[49]
  GI50: 3.39 µM
  TGI: 15 µM
[50]
  GI50: 3.02 µM
  TGI: 11.7 µM
[51]
  GI50: 1.6 µM
  TGI: 3.01 µM
[52]
  GI50: 3.94 µM
  TGI: 14 µM
[53]
  GI50: 2.56 µM
  TGI: 6.3 µM
[54]
  GI50: 3.68 µM
  TGI: 15.6 µM
[55]
  GI50: 2.77 µM
  TGI: 8.31 µM
[56]
  GI50: 1.9 µM
  TGI: 3.65 µM
[57]
  GI50: 2.32 µM
  TGI: 5.69 µM
[58]
  GI50: 4.62 µM
  TGI: 16.6 µM
